Results taken from the supplement of paper PMC10307832.

What was measured:
[1] = compound: O=C(O)C(Cc1ccccc1[N+](=O)[O-])=NNc1nc(-c2ccc(Cl)c(Cl)c2)cs1 (mixture of isomers) [4EGI-1] + Cc1cc(Nc2cc(N3CCN(C)CC3)nc(Sc3ccc(NC(=O)C4CC4)cc3)n2)n[nH]1 [Tozasertib] (partner 0.1 µM); assay: relative viability (nuclei count vs DMSO), 5 days (fraction); higher = more cells survive
Summary of the method: (§1)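 Relative viability divides the nuclei count in treated wells by that in vehicle wells. Lung cancer cell lines were seeded in 1536-well plates, dosed by pin tool the next day, and fixed and stained after 5 days in one step with final 0.05% Triton X-100, 1% formaldehyde and 1 ug/ml Hoechst. Dosing was a single drug or a fixed anchor-drug dose plus five library-drug doses (not always all listed) in √10 steps, and values are medians of duplicate plates imaged at 4×.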

[2] = compound: CN1CCN(CC1)C2=CC(=C(C=C2)NC3=NC=C4C(=N3)N(C5=CC=CC=C5C(=O)N4C)C)OC [XMD8-85] + COc1cc2c(Oc3ccc(NC(=O)C4(C(=O)Nc5ccc(F)cc5)CC4)cc3F)ccnc2cc1OCCCN1CCOCC1 [Foretinib] (partner 0.25 µM); assay: as above
Summary of the method: as §1

Cell Line	relative viability ([1]; first compound 0.5 µM)	relative viability ([1]; first compound 5 µM)	relative viability ([1]; first compound 15.81 µM)	relative viability ([1]; first compound 50 µM)	relative viability ([2]; first compound 0.08 µM)	relative viability ([2]; first compound 0.8 µM)	relative viability ([2]; first compound 2.53 µM)	relative viability ([2]; first compound 8 µM)	relative viability ([1]; first compound 1.581 µM)	relative viability ([2]; first compound 0.253 µM)
NCI-H3122	0.418	0.387	0.334	0.116	1.04	1.07	1.04	0.947	–	–
PC-3 [JPC-3]	0.881	0.825	–	0.711	1.05	1.04	1.19	0.912	0.863	1.04
PC-14	0.584	0.57	–	0.28	0.953	0.881	1.03	0.851	–	0.826
RERF-LC-KJ	0.547	0.425	0.363	0.216	0.84	0.877	0.877	0.849	–	0.762
SK-LU-1	0.374	0.381	0.259	0.227	0.845	0.841	0.772	0.674	0.335	0.825
SK-MES-1	0.894	0.925	0.699	0.234	0.888	0.875	1	0.57	0.596	0.712
SW 900	0.688	0.551	0.459	0.291	0.942	1.58	0.466	0.403	–	0.922
SW 1573	0.176	0.149	0.172	0.102	0.876	0.854	1	0.762	0.188	0.884
UMC-11	0.192	0.203	0.201	0.21	1.17	1.21	0.913	0.651	0.198	0.949
